We go through two compounds from US8895069B2, “Drug delivery system using hyaluronic acid-peptide conjugate micelle” (Postech Academy-Industry Foundation, priority 2011, dated 2014).

Assay [1] has as its system HUVEC (Human Umbilical Vein Endothelial Cell). Briefly: HUVEC proliferation (MTT). In kind it is cell-based. As to the method: An endothelial cell, HUVEC (Human Umbilical Vein Endothelial Cell) (innopharmascreen co. ltd., Korea) was incubated in a EGM®^2 culture medium (Lonza) and then 100 μL of the cell solution with a concentration of 2×10^4/ml was distributed per each well and incubated in a 5% CO2 cultivator at 37° C. for 16 hours. After 16 hours, the culture medium was replaced and seven types of samples were treated. Among the seven types of samples were the control group as treated only with a culture medium, and the groups treated with 50 μM, 100 μM, and 200 μM of genistein solutions and the solutions of the genistein-loaded hyaluronic acid-peptide conjugate of Example 1 comprising 50 μM, 100 μM, and 200 μM of genistein, respectively. 10 μL of each sample and 100 μL of the culture medium were mixed and treated. After the samples were treated, they were incubated in 5% CO2 incubator at 37° C. and the culture media with the samples being mixed therein […] once a day. After three days, the culture media were removed and the samples were treated with 110 μL of an MTT solution (Amresco Co. (Solon, Ohio)), and incubated in a cultivator at 37° C. for two hours and then 50 μL of DMSO was added thereto to measure a light absorbency at 540 nm. The light absorbance as measured was compared with the light absorbance of the control group and the degree of the cell growth was calculated.

For assay [2], the system named is corneal neovascularization. In words: Corneal neovascularization, genistein-loaded micelle (Experimental Example 13). The assay is classed as in vivo, Albino Sprague Dawley male rats.
Assay [3] concerns vascular hyperpermeability due to diabetic retinopathy. Briefly: Vascular hyperpermeability due to diabetic retinopathy, genistein-loaded micelle (Experimental Example 14). The assay is classed as in vivo, Sprague Dawley (SD) male rats. The method, then: First, each rat was injected intraperitonially with 60 mg/kg of streptozotocin dissolved in 10 mM citrate buffer at pH 4.5 in order for diabetes to be induced. In three days after the injection of streptozotocin, the rat was determined to develop diabetes when its serum concentration of glucose was at least 300 mg/dL. In a week after the injection of streptozotocin, 10 μL of each sample solution was injected into the vitroeus body.

Assay [4] relates to corneal neovascularization. Briefly: Corneal neovascularization after silver nitrate cauterization (Experimental Example 8). The assay is classed as in vivo, Albino Sprague Dawley male rats. To be noted: rat cornea, subconjunctival 20 μL; Avastin 10 mg/ml, peptide and conjugate […] peptide; NV control 90.8±5%. The method, then: All animal tests including this experiment were conducted in compliance with the guidelines of the Catholic University of Korea and the principles of laboratory animal care; NIH publication No. 85-23 revised in 1985.
The rat was put under anesthesia by an intra-peritoneal injection of a mixed solution of 20 mg/kg of ketamine hydrochloride and 2.5 mg/kg of xylazine hydrochloride. […] In 3 days after the cauterization, subconjunctival administration was conducted with 20 μL of each of 4 sample solutions (a normal control group, NV control (neovascularization control: a control group wherein angiogenesis was made to occur and no drug was treated thereon), a solution comprising Avastin (Roche) dissolved in PBS at a concentration of 10 mg/ml, a solution comprising anti-Flt1 peptide (GGNQWFI) (SEQ ID NO: 3) dissolved in PBS at a concentration of 2.5 mg/ml, and a solution comprising the hyaluronic acid-peptide conjugate with a lower peptide concentration obtained from Preparation Example 3 as dissolved in PBS at a concentration of 2.5 mg/ml based on the content of anti-Flt1 peptide). […] The obtained images were subjected to quantitative analysis with Image J program (Ver. 1.38, National Institute of Health, MD).

Setting [5] is: genistein as dispersed in water, 6.2 mg/ml.
The mark [6] stands for this setting: genistein as dissolved in DMSO, 6.2 mg/ml.

`O=c1c(-c2ccc(O)cc2)coc2cc(O)cc(O)c12` [genistein]: the “HUVEC growth inhibition, comparison of genistein alone with micelle” value in assay [1] (genistein alone at 200 uM versus genistein-loaded micelle at 50 uM) is reported as “inferior to the results obtained from the group treated with the genistein-loaded micelle at its lowest concentration (50 uM)”. Besides, the “HUVEC cell number relative to control group (100%)” value in assay [1] (genistein concentration 100 μm (so in the source), 3 days, MTT) is 70.5±3.5%. In addition, the “average ratio of the neovascular area” value in assay [2] (setting [5]) turned out to be 68%; in assay [2] (setting [6]) it was 38%. The “average intensity of the fluorescence of retina relative to normal group (1)” value was determined as 2.38±0.20 in assay [3] (setting [5]) and 2.00±0.16 in assay [3] (setting [6]).

Take “Avastin: Avastin (Roche), positive control”: the “average ratio of the neovascular area” value in assay [4] is recorded as 35.4±6.6%; in assay [2] (rat cornea, samples in PBS: Avastin 10 mg/ml, conjugate and micelle 3.2 mg/ml peptide, control group 86%), 23%. The “average intensity of the fluorescence of retina relative to normal group (1)” value in assay [3] (normal = 1, negative control 2.54±0.20, Avastin 10 mg/ml, micelle 3.2 mg/ml peptide, four weeks after streptozotocin) was determined as 1.49±0.17.
